From PubChem BioAssay (NCI)
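GI50 marks 50% less growth. TGI: total growth inhibition.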

Legend:
Experiment in all cases: DTP human tumour cell line panel, 384-well format
COLO 205 colon = test system: COLO 205 colon
NCI-H322M lung = test system: NCI-H322M lung
MOLT-4 leukemia = test system: MOLT-4 leukemia
HOP-92 NSCLC = test system: HOP-92 NSCLC
SK-OV-3 ovarian = test system: SK-OV-3 ovarian
U251 glioblastoma = test system: U251 glioblastoma
EKVX NSCLC = test system: EKVX NSCLC
TK-10 renal = test system: TK-10 renal
K-562 leukemia = test system: K-562 leukemia
SK-MEL-5 melanoma = test system: SK-MEL-5 melanoma
SF-268 CNS = test system: SF-268 CNS
MDA-MB-231 breast = test system: MDA-MB-231 breast
HCT-15 colon = test system: HCT-15 colon
LOX IMVI melanoma = test system: LOX IMVI melanoma
A498 renal = test system: A498 renal
HT29 colon = test system: HT29 colon
OVCAR-4 ovarian = test system: OVCAR-4 ovarian
HCC-2998 colon = test system: HCC-2998 colon
T-47D breast = test system: T-47D breast
PC-3 prostate = test system: PC-3 prostate
HS 578T breast = test system: HS 578T breast
A549 NSCLC = test system: A549 NSCLC
IGROV1 ovarian = test system: IGROV1 ovarian
BT-549 breast = test system: BT-549 breast
ACHN renal = test system: ACHN renal
786-0 renal = test system: 786-0 renal
RPMI-8226 leukemia = test system: RPMI-8226 leukemia
MALME-3M melanoma = test system: MALME-3M melanoma
CAKI-1 renal = test system: CAKI-1 renal
HL-60(TB) leukemia = test system: HL-60(TB) leukemia
RXF 393 renal = test system: RXF 393 renal
CCRF-CEM leukemia = test system: CCRF-CEM leukemia
NCI-H23 lung = test system: NCI-H23 lung
MDA-MB-468 breast = test system: MDA-MB-468 breast
UACC-62 melanoma = test system: UACC-62 melanoma
SF-539 CNS = test system: SF-539 CNS
M14 melanoma = test system: M14 melanoma
UO-31 renal = test system: UO-31 renal
HOP-62 NSCLC = test system: HOP-62 NSCLC
SN12C renal = test system: SN12C renal
NCI-H460 NSCLC = test system: NCI-H460 NSCLC
NCI-H522 lung = test system: NCI-H522 lung
SNB-19 CNS = test system: SNB-19 CNS
OVCAR-3 ovarian = test system: OVCAR-3 ovarian
SNB-75 CNS = test system: SNB-75 CNS
NCI-H226 lung = test system: NCI-H226 lung
OVCAR-8 ovarian = test system: OVCAR-8 ovarian
HCT-116 colon = test system: HCT-116 colon
SW-620 colon = test system: SW-620 colon
MCF7 breast = test system: MCF7 breast
MDA-MB-435 melanoma = test system: MDA-MB-435 melanoma
DU-145 prostate = test system: DU-145 prostate
SK-MEL-28 melanoma = test system: SK-MEL-28 melanoma
NCI/ADR-RES ovarian = test system: NCI/ADR-RES ovarian
SF-295 CNS = test system: SF-295 CNS
KM12 colon = test system: KM12 colon
OVCAR-5 ovarian = test system: OVCAR-5 ovarian

Work on `Cn1ccc(S(=O)(=O)N2CCC[C@H](Nc3nccc(-c4c(-c5cccc(O)c5)nc5occn45)n3)C2)n1` yielded a GI50 (COLO 205 colon) of under 0.01 µM, a TGI (COLO 205 colon) of 20.2 µM and a GI50 (NCI-H322M lung) of 10.1 µM. The TGI (NCI-H322M lung) was 35.9 µM, the GI50 (MOLT-4 leukemia) was 5.62 µM and the TGI (MOLT-4 leukemia) was 17.1 µM. The GI50 (HOP-92 NSCLC) was 5.55 µM, the TGI (HOP-92 NSCLC) was 26.4 µM and the GI50 (SK-OV-3 ovarian) was 6.83 µM. The TGI (SK-OV-3 ovarian) was 23.6 µM, the GI50 (U251 glioblastoma) was 12.2 µM and the TGI (U251 glioblastoma) was 26.5 µM. The GI50 (EKVX NSCLC) was 4.71 µM, the TGI (EKVX NSCLC) was 17.5 µM and the GI50 (TK-10 renal) was 11.3 µM. It also gave a TGI (TK-10 renal) of 48.2 µM, a GI50 (K-562 leukemia) of 7.07 µM and a TGI (K-562 leukemia) of 41.4 µM. For the same compound, the GI50 (SK-MEL-5 melanoma) was 0.0669 µM, the TGI (SK-MEL-5 melanoma) was 14 µM and the GI50 (SF-268 CNS) was 3.65 µM. For the same compound, the TGI (SF-268 CNS) was 13.8 µM, the GI50 (MDA-MB-231 breast) was 2.04 µM and the TGI (MDA-MB-231 breast) was 23.6 µM. For the same compound, the GI50 (HCT-15 colon) was 14.2 µM, the TGI (HCT-15 colon) was 35.7 µM and the GI50 (LOX IMVI melanoma) was 1.24 µM. The TGI (LOX IMVI melanoma) was 2.83 µM, the GI50 (A498 renal) was 3.82 µM and the TGI (A498 renal) was 17.2 µM. For the same compound, the GI50 (HT29 colon) was 0.325 µM, the TGI (HT29 colon) was 13.7 µM and the GI50 (OVCAR-4 ovarian) was 20.2 µM. It also gave a TGI (OVCAR-4 ovarian) of 46 µM, a GI50 (HCC-2998 colon) of 4.05 µM and a TGI (HCC-2998 colon) of 11.2 µM. It also gave a GI50 (T-47D breast) of 11.1 µM, a TGI (T-47D breast) of 23.4 µM and a GI50 (PC-3 prostate) of 8.79 µM. The TGI (PC-3 prostate) was 34 µM, the GI50 (HS 578T breast) was 3.33 µM and the TGI (HS 578T breast) was 15.8 µM. The GI50 (A549 NSCLC) was 11.9 µM, the TGI (A549 NSCLC) was 25.2 µM and the GI50 (IGROV1 ovarian) was 4.14 µM. For the same compound, the TGI (IGROV1 ovarian) was 17 µM, the GI50 (BT-549 breast) was 7.47 µM and the TGI (BT-549 breast) was 21.8 µM. It also gave a GI50 (ACHN renal) of 7.99 µM, a TGI (ACHN renal) of 35.8 µM and a GI50 ([…]-0 renal) of 7.2 µM. The TGI (786-0 renal) was 32.5 µM, the GI50 (RPMI-8226 leukemia) was 10.5 µM and the TGI (RPMI-8226 leukemia) was 22.4 µM. It also gave a GI50 (MALME-3M melanoma) of under 0.01 µM, a GI50 (CAKI-1 renal) of 4.38 µM and a TGI (CAKI-1 renal) of 19.3 µM. For the same compound, the GI50 (HL-60(TB) leukemia) was 8.06 µM, the TGI (HL-60(TB) leukemia) was 20.1 µM and the GI50 (RXF 393 renal) was 5.61 µM. It also gave a TGI (RXF 393 renal) of 19.2 µM, a GI50 (CCRF-CEM leukemia) of 2.32 µM and a TGI (CCRF-CEM leukemia) of 4.7 µM. The GI50 (NCI-H23 lung) was 3.95 µM, the TGI (NCI-H23 lung) was 17.8 µM and the GI50 (MDA-MB-468 breast) was 5.59 µM. The TGI (MDA-MB-468 breast) was 18.5 µM, the GI50 (UACC-62 melanoma) was under 0.01 µM and the GI50 (SF-539 CNS) was 12.6 µM. The TGI (SF-539 CNS) was 25.5 µM, the GI50 (M14 melanoma) was under 0.01 µM and the TGI (M14 melanoma) was 1.15 µM. It also gave a GI50 (UO-31 renal) of 1.64 µM, a TGI (UO-31 renal) of 22 µM and a GI50 (HOP-62 NSCLC) of 10.4 µM. It also gave a TGI (HOP-62 NSCLC) of 30.7 µM, a GI50 (SN12C renal) of 8.01 µM and a TGI (SN12C renal) of 30.7 µM. The GI50 (NCI-H460 NSCLC) was 12.1 µM, the TGI (NCI-H460 NSCLC) was 26.3 µM and the GI50 (NCI-H522 lung) was 15.1 µM. For the same compound, the TGI (NCI-H522 lung) was 29.5 µM, the GI50 (SNB-19 CNS) was 27.1 µM and the TGI (SNB-19 CNS) was over 100 µM. For the same compound, the GI50 (OVCAR-3 ovarian) was 6.66 µM, the TGI (OVCAR-3 ovarian) was 19.2 µM and the GI50 (SNB-75 CNS) was 4.98 µM. It also gave a TGI (SNB-75 CNS) of 31.7 µM, a GI50 (NCI-H226 lung) of 11.2 µM and a TGI (NCI-H226 lung) of 37.8 µM. It also gave a GI50 (OVCAR-8 ovarian) of 13.3 µM, a TGI (OVCAR-8 ovarian) of 36.9 µM and a GI50 (HCT-116 colon) of 3.59 µM. For the same compound, the TGI (HCT-116 colon) was 16.4 µM, the GI50 (SW-620 colon) was 11.6 µM and the TGI (SW-620 colon) was 25.5 µM. It also gave a GI50 (MCF7 breast) of 6.67 µM, a TGI (MCF7 breast) of 19.9 µM and a GI50 (MDA-MB-435 melanoma) of 0.0187 µM. It also gave a TGI (MDA-MB-435 melanoma) of 21.5 µM, a GI50 (DU-145 prostate) of 14.4 µM and a TGI (DU-145 prostate) of 33.8 µM. The GI50 (SK-MEL-28 melanoma) was under 0.01 µM, the TGI (SK-MEL-28 melanoma) was 0.602 µM and the GI50 (NCI/ADR-RES ovarian) was over 100 µM. The TGI (NCI/ADR-RES ovarian) was over 100 µM, the GI50 (SF-295 CNS) was 20.2 µM and the TGI (SF-295 CNS) was 43.5 µM. It also gave a GI50 (KM12 colon) of 15.1 µM, a TGI (KM12 colon) of 35.5 µM and a GI50 (OVCAR-5 ovarian) of 11.9 µM. It also gave a TGI (OVCAR-5 ovarian) of 38.4 µM.
